Measurements from ChEMBL document CHEMBL4725220, “Small molecule inhibitors of IκB kinase β: A chip-based screening and molecular docking simulation” (Bioorg Med Chem, 2020).

What follows are molecules tested against T1, Inhibitor of nuclear factor kappa-B kinase subunit beta (Homo sapiens, UniProt O14920) (assay: Inhibition of IKKbeta (unknown origin) assessed as substrate phosphorylation using IkappaBalpha as substrate incubated for 1 hr in presence of ATP by chip-based fluorescence assay).
T1 sequence (O14920 whole entry): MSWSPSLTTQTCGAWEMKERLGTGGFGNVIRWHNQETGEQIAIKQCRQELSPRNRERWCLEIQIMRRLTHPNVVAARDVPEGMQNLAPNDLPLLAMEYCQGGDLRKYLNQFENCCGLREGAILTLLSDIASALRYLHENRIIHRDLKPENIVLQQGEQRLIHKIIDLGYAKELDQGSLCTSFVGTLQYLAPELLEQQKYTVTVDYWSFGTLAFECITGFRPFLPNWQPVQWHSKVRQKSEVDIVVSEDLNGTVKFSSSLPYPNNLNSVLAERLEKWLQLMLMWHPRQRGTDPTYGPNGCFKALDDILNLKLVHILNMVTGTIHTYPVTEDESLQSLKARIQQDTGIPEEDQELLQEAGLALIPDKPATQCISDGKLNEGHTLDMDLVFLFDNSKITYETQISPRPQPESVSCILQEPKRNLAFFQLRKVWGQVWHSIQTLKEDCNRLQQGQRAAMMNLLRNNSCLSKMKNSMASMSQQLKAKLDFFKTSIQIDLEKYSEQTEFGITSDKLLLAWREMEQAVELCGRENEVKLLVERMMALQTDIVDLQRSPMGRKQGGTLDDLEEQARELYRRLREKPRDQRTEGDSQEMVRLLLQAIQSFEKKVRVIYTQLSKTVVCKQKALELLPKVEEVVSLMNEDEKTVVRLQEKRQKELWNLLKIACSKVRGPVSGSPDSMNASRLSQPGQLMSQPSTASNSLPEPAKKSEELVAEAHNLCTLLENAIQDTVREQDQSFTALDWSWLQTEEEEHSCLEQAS

Row | IC50 | Compound
1 | 5.4 µM | O=C(O)C1=CC(=C(c2ccc(O)c(C(=O)O)c2)c2ccc(O)c(C(=O)O)c2)C=CC1=O [AURINTRICARBOXYLIC ACID]
2 | 3.89 µM | COc1ccc(-c2cc(=O)c3c(O)cc(O[C@@H]4O[C@H](CO[C@@H]5O[C@@H](C)[C@H](O)[C@@H](O)[C@H]5O)[C@@H](O)[C@H](O)[C@H]4O)cc3o2)cc1O [DIOSMIN]
3 | 2.18 µM | O=C1C=C2C[C@]3(O)COc4c(ccc(O)c4O)C3=C2C=C1O
4 | 6.46 µM | O=C(c1ccc(Nc2nccc(-c3cc4ccccc4s3)n2)cc1)N1CCC(N2CCCC2)CC1
5 | 1.98 µM | O=c1oc2c(O)c(O)cc3c(=O)oc4c(O)c(O)cc1c4c23 [ELLAGIC ACID]
